Results from patent US9040530B2, “1,2,4-triazine-6-carboxamide kinase inhibitors” (Portola Pharmaceuticals, Inc., priority 2012, dated 2015).

Target: T1, full length active recombinant SYK enzyme (Homo sapiens, UniProt P43405)
T1 construct: full length active recombinant SYK enzyme (Millipore, Calif.); purchased Millipore
Assay: Inhibition of Syk tyrosine phosphorylation activity (LANCE TR-FRET kinase assay)
Format: biochemical
Conditions: 1 nM active SYK enzyme, 550 nM SYK-substrate, 100 μM ATP, 1 hour at room temperature

Compound | IC50
CC[C@@H](Nc1nnc(C(N)=O)c(Nc2ccc(Cl)c(C(F)(F)F)c2)n1)C(N)=O [Example 240, (R)-3-((1-amino-1-oxobutan-2-yl)amino)-5-((4-chloro-3-(trifluoromethyl)phenyl)amino)-1,2,4-triazine-6-carboxamide] | 100 to 1000 nM
Cc1cccc(Nc2nc(N[C@@H]3CCCC(F)(F)[C@@H]3N)nnc2C(N)=O)c1 [Example 12, 3-(((1R,2R)-2-amino-3,3-difluorocyclohexyl)amino)-5-(m-tolylamino)-1,2,4-triazine-6-carboxamide] | 10 to 100 nM
NC(=O)c1nnc(N[C@@H]2CCCC(F)(F)[C@@H]2N)nc1Nc1cccc(-c2ncco2)c1 [Example 130, 3-(((1R,2R)-2-amino-3,3-difluorocyclohexyl)amino)-5-((3-(oxazol-2-yl)phenyl)amino)-1,2,4-triazine-6-carboxamide] | > 1000 nM
NC(=O)c1nnc(N[C@@H]2CCCC[C@@H]2N)nc1Nc1cccc(F)c1 [Example 17, 3-(((1R,2S)-2-aminocyclohexyl)amino)-5-((3-fluorophenyl)amino)-1,2,4-triazine-6-carboxamide] | 1 to 10 nM
NC(=O)c1nnc(N[C@@H]2CCCC[C@@H]2N)nc1Nc1ccc(-n2cncn2)cc1 [Example 106, 5-((4-(1H-1,2,4-triazol-1-yl)phenyl)amino)-3-(((1R,2S)-2-aminocyclohexyl)amino)-1,2,4-triazine-6-carboxamide] | 10 to 100 nM
NC(=O)c1nnc(N[C@@H]2CCCC[C@@H]2N)nc1Nc1csc2ncccc12 [Example 37, 3-(((1R,2S)-2-aminocyclohexyl)amino)-5-(thieno[2,3-b]pyridin-3-ylamino)-1,2,4-triazine-6-carboxamide] | 1 to 10 nM
Cn1cc(C#N)c2ccc(Nc3nc(N[C@@H]4CCCC[C@@H]4N)nnc3C(N)=O)cc21 [Example 136, 3-(((1R,2S)-2-aminocyclohexyl)amino)-5-((3-cyano-1-methyl-1H-indol-6-yl)amino)-1,2,4-triazine-6-carboxamide] | 1 to 10 nM
CC[C@@H](Nc1nnc(C(N)=O)c(Nc2ccc3c(c2)COCC3)n1)C(N)=O [Example 227, (R)-3-((1-amino-1-oxobutan-2-yl)amino)-5-(isochroman-7-ylamino)-1,2,4-triazine-6-carboxamide] | 1 to 10 nM
Cc1cc(Nc2nc(N[C@@H]3CCCC(F)(F)[C@@H]3N)nnc2C(N)=O)ccc1Cl [Example 218, 3-(((1R,2R)-2-amino-3,3-difluorocyclohexyl)amino)-5-((4-chloro-3-methylphenyl)amino)-1,2,4-triazine-6-carboxamide] | 10 to 100 nM
CC[C@@H](Nc1nnc(C(N)=O)c(Nc2cnc3cc(F)ccc3c2)n1)C(N)=O [Example 159, (R)-3-((1-amino-1-oxobutan-2-yl)amino)-5-((7-fluoroquinolin-3-yl)amino)-1,2,4-triazine-6-carboxamide] | 10 to 100 nM
CC[C@@H](Nc1nnc(C(N)=O)c(Nc2cc(C)ns2)n1)C(N)=O [Example 140, (R)-3-((1-amino-1-oxobutan-2-yl)amino)-5-((3-methylisothiazol-5-yl)amino)-1,2,4-triazine-6-carboxamide] | 10 to 100 nM
NC(=O)c1nnc(N[C@@H]2CCOC[C@@H]2N)nc1Nc1ccc(C(F)(F)F)cc1 [Example 242, 3-(((3R,4R)-3-aminotetrahydro-2H-pyran-4-yl)amino)-5-((4-(trifluoromethyl)phenyl)amino)-1,2,4-triazine-6-carboxamide] | 10 to 100 nM
CC[C@@H](Nc1nnc(C(N)=O)c(Nc2cncc(F)c2)n1)C(N)=O [Example 15, (R)-3-((1-amino-1-oxobutan-2-yl)amino)-5-((5-fluoropyridin-3-yl)amino)-1,2,4-triazine-6-carboxamide] | 100 to 1000 nM
CC[C@@H](Nc1nnc(C(N)=O)c(Nc2ccc(C(F)(F)F)c(C(F)(F)F)c2)n1)C(N)=O [Example 135, (R)-3-((1-amino-1-oxobutan-2-yl)amino)-5-((3,4-bis(trifluoromethyl)phenyl)amino)-1,2,4-triazine-6-carboxamide] | 10 to 100 nM
NC(=O)c1nnc(N[C@@H]2CCCC(F)(F)[C@@H]2N)nc1Nc1cccc(Cl)c1 [Example 201, 3-(((1R,2R)-2-amino-3,3-difluorocyclohexyl)amino)-5-((3-chlorophenyl)amino)-1,2,4-triazine-6-carboxamide] | 10 to 100 nM
NC(=O)c1nnc(N[C@@H]2CCNC2)nc1Nc1ccc2ncccc2c1 [Example 57, (R)-3-(pyrrolidin-3-ylamino)-5-(quinolin-6-ylamino)-1,2,4-triazine-6-carboxamide] | 1 to 10 nM
NC(=O)c1nnc(N[C@@H]2CCCC(F)(F)[C@@H]2N)nc1Nc1ccc2scnc2c1 [Example 245, 3-(((1R,2R)-2-amino-3,3-difluorocyclohexyl)amino)-5-(benzo[d]thiazol-5-ylamino)-1,2,4-triazine-6-carboxamide] | 10 to 100 nM
NC(=O)c1nnc(N[C@@H]2CCCC(F)(F)[C@@H]2N)nc1Nc1csc2ncccc12 [Example 38, 3-(((1R,2R)-2-amino-3,3-difluorocyclohexyl)amino)-5-(thieno[2,3-b]pyridin-3-ylamino)-1,2,4-triazine-6-carboxamide] | 10 to 100 nM
NC(=O)c1nnc(N[C@@H]2CCCC[C@@H]2N)nc1Nc1ccc2ncccc2c1 [Example 47, 3-(((1R,2S)-2-aminocyclohexyl)amino)-5-(quinolin-6-ylamino)-1,2,4-triazine-6-carboxamide] | 1 to 10 nM
Cc1ccc(Nc2nc(N[C@@H]3CCCC[C@@H]3N)nnc2C(N)=O)cc1 [Example 8, 3-(((1R,2S)-2-aminocyclohexyl)amino)-5-(p-tolylamino)-1,2,4-triazine-6-carboxamide] | 1 to 10 nM
Cn1ccc2cc(Nc3nc(N[C@@H]4CCCC(F)(F)[C@@H]4N)nnc3C(N)=O)cnc21 [Example 151, 3-(((1R,2R)-2-amino-3,3-difluorocyclohexyl)amino)-5-((1-methyl-1H-pyrrolo[2,3-b]pyridin-5-yl)amino)-1,2,4-triazine-6-carboxamide] | 100 to 1000 nM
NC(=O)c1nnc(N[C@@H]2CCCC[C@@H]2N)nc1Nc1cccc(Cl)c1 [Example 23, 3-(((1R,2S)-2-aminocyclohexyl)amino)-5-((3-chlorophenyl)amino)-1,2,4-triazine-6-carboxamide] | 1 to 10 nM
NC(=O)c1nnc(N[C@@H]2CCOC[C@@H]2N)nc1Nc1ccc2ncccc2c1 [Example 55, 3-(((3R,4R)-3-aminotetrahydro-2H-pyran-4-yl)amino)-5-(quinolin-6-ylamino)-1,2,4-triazine-6-carboxamide] | 1 to 10 nM
Cc1ccc(Nc2nc(N[C@H](CC3CC3)C(N)=O)nnc2C(N)=O)cc1C [Example 210, (R)-3-((1-amino-3-cyclopropyl-1-oxopropan-2-yl)amino)-5-((3,4-dimethylphenyl)amino)-1,2,4-triazine-6-carboxamide] | 1 to 10 nM

Next, values leading:

IC50 | Compound
10 to 100 nM | CC[C@@H](Nc1nnc(C(N)=O)c(Nc2ccc(C)cc2)n1)C(N)=O [Example 10, (R)-3-((1-amino-1-oxobutan-2-yl)amino)-5-(p-tolylamino)-1,2,4-triazine-6-carboxamide]
1 to 10 nM | CC[C@@H](Nc1nnc(C(N)=O)c(Nc2ccc3cnn(C)c3c2)n1)C(N)=O [Example 180, (R)-3-((1-amino-1-oxobutan-2-yl)amino)-5-((1-methyl-1H-indazol-6-yl)amino)-1,2,4-triazine-6-carboxamide]
1 to 10 nM | Cc1ccc(Nc2nc(N[C@H](CC(C)C)C(N)=O)nnc2C(N)=O)cc1C [Example 209, (R)-3-((1-amino-4-methyl-1-oxopentan-2-yl)amino)-5-((3,4-dimethylphenyl)amino)-1,2,4-triazine-6-carboxamide]
10 to 100 nM | CC[C@@H](Nc1nnc(C(N)=O)c(Nc2ccc(N(C)C)c(F)c2)n1)C(N)=O [Example 162, (R)-3-((1-amino-1-oxobutan-2-yl)amino)-5-((4-(dimethylamino)-3-fluorophenyl)amino)-1,2,4-triazine-6-carboxamide]
10 to 100 nM | Cc1ccc(Nc2nc(N[C@H](Cc3cccs3)C(N)=O)nnc2C(N)=O)cc1 [Example 188, (R)-3-(1-amino-1-oxo-3-(thiophen-2-yl)propan-2-ylamino)-5-(p-tolylamino)-1,2,4-triazine-6-carboxamide]
1 to 10 nM | CC(C)C[C@@H](Nc1nnc(C(N)=O)c(Nc2cccc3c2ccn3C)n1)C(N)=O [Example 88, (R)-3-((1-amino-4-methyl-1-oxopentan-2-yl)amino)-5-((1-methyl-1H-indol-4-yl)amino)-1,2,4-triazine-6-carboxamide]
10 to 100 nM | CC(C)[C@@H](Nc1nnc(C(N)=O)c(Nc2cccc3c2ccn3C)n1)C(N)=O [Example 87, (R)-3-((1-amino-3-methyl-1-oxobutan-2-yl)amino)-5-((1-methyl-1H-indol-4-yl)amino)-1,2,4-triazine-6-carboxamide]
100 to 1000 nM | CC[C@@H](Nc1nnc(C(N)=O)c(Nc2cccc(C(F)(F)F)c2)n1)C(N)=O [Example 171, (R)-3-((1-amino-1-oxobutan-2-yl)amino)-5-((3-(trifluoromethyl)phenyl)amino)-1,2,4-triazine-6-carboxamide]
1 to 10 nM | Cn1cc(C#N)c2ccc(Nc3nc(N[C@H](CC4CC4)C(N)=O)nnc3C(N)=O)cc21 [Example 178, (R)-3-((1-amino-3-cyclopropyl-1-oxopropan-2-yl)amino)-5-((3-cyano-1-methyl-1H-indol-6-yl)amino)-1,2,4-triazine-6-carboxamide]
100 to 1000 nM | CC[C@@H](Nc1nnc(C(N)=O)c(Nc2cccc(C#N)c2)n1)C(N)=O [Example 73, (R)-3-((1-amino-1-oxobutan-2-yl)amino)-5-((3-cyanophenyl)amino)-1,2,4-triazine-6-carboxamide]
100 to 1000 nM | CC[C@@H](Nc1nnc(C(N)=O)c(Nc2cnc3cccnc3c2)n1)C(N)=O [Example 146, (R)-5-((1,5-naphthyridin-3-yl)amino)-3-((1-amino-1-oxobutan-2-yl)amino)-1,2,4-triazine-6-carboxamide]
